We go through 2 compounds from US7256178B2, “Physiologically active substances” (priority 2002, dated 2007).

For data set [1], the system named is VEGF promoter. The experiment in a line: VEGF transcription inhibitory activity (VEGF-PLAP reporter, U251/1-8 cells under hypoxic conditions). It counts as cell-based. The settings on record: Homo sapiens, U-251, hypoxic (2% O2) incubator 18 hours, n=2 to 3. The source says:
In order to prepare a reporter system in which transcription from a VEGF promoter is reflected, a VEGF promoter sequence was cloned and inserted into a placental alkaline phosphatase (PLAP) vector to construct a reporter vector.
In order to obtain a promoter region of human VEGF, a VEGF genome was cloned from a phage library. Based on VEGF cDNA (GenBank accession number: X62568), a PCR primer in the sequence described as SEQ ID NO: 1 or SEQ ID NO: 2 was designed to conduct PCR, thereby obtaining about a fragment of 340 bp. A human genomic phage library (human genomic library, Clontech) was screened using this fragment as a probe to obtain pUC18-VEGFA containing a VEGF5′ franking region of about 5.4 kb. This pUC18-VEGFA was cut with Kpn I/Nhe I to obtain a VEGF promoter region of about 2.3 kb, and the region was inserted into the multicloning site Kpn I/Nhe I of the placental alkaline phosphatase (PLAP) reporter vector (Goto et al., Mol. Pharmacol., 49, 860-873, 1996) to construct a VEGF-PLAP vector.
The above-described VEGF-PLAP vector was introduced into U251 cells cultured in a Dulbecco's modified Eagle's medium containing 10% fetal bovine serum (DMEM, manufactured by Sigma Co.), and cultured in the presence of 1 mg/mL G418 (Merck & Co., Inc.) to establish a G418-resistant stable clone (U251/1-8 cells).
As in a report by Minchenko et al. (Cell. Mol. Biol. Res., 40, 35-39, 1994), U251/1-8 cells were confirmed to be a reporter system which secretes PLAP into a culture medium under hypoxic conditions (2% O2 incubator), and in which transcription from a VEGF promoter is reflected. A compound inhibiting VEGF production induced by hypoxic stimulation was screened using this clone.
In order to eliminate influence of the alkali phosphatase in the serum, the U251/1-8 cells were washed with a sufficient amount of PBS (Phosphate buffered saline) twice, and treated at 65° C. for 20 minutes to inactivate the alkaline phosphatase in the serum. 4×10^4 cells/180 μL per well of the cells diluted in the DMEM culture medium containing 10% of this serum were plated in a 96-well plate.
The cells were cultured in a CO2 incubator (5% CO2) at 37° C. overnight, and 20 μL of the above-described culture solution containing the test compound at threefold serial dilutions was added. Subsequently, the cells were cultured in hypoxic (2% O2) incubator for 18 hours. To measure the PLAP activity in the culture supernatant liquid, 10 μL of the culture supernatant liquid was added to 50 μL of a 0.28 M Na2CO3—NaHCO3 buffer solution (pH 10.0, 8.0 mM MgSO4), and finally 50 μL of an alkaline phosphatase substrate (Lumistain, Genome Science Laboratories Co., Ltd.) was added thereto. After the reaction for one hour, chemiluminescence was detected using a microplate reader (PerkinElmer) to measure the PLAP activity as the alkaline phosphatase activity. The PLAP activity under normoxic conditions was defined as 0%, the PLAP activity of the cells when treated under hypoxic conditions was defined as 100%, and the concentration for inhibiting 50% of the PLAP activity was defined as the IC50 value of PLAP. The IC50 values of the 6-deoxy 11107D derivatives shown in examples were determined (n=2 to 3).

For data set [2], the system named is WiDr human colon cancer cells. The experiment in a line: Action of inhibiting proliferation of WiDr human colon cancer cells (MTT). It is filed as cell-based. The settings on record: 72 h, three days, n=2 to 3, read-out: WiDr human colon cancer cell proliferation inhibitory activity (IC50: nM). As to the method: 2×10^3 cells/well of WiDr human colon cancer cells cultured in a Dulbecco's modified Eagle's medium containing 10% fetal bovine serum, penicillin (100 units/mL) and streptomycin (100 μg/mL) (DMEM, manufactured by Sigma Co.) were plated in a 96-well plate. The cells were cultured in a CO2 incubator overnight, and 20 μL of the above-described culture solution containing the test compound at threefold serial dilutions was added for culturing the cells. After three days, 50 μL of a 3.3 mg/mL MTT solution was added, and the cells were further cultured for one hour. Then, formazan generated by reduction using living cells was extracted with 100 μL of DMSO to measure the absorbance (A540/A660), which was used as an index of the number of living cells.
The concentration for inhibiting 50% of proliferation of WiDr human colon cancer cells (IC50 value) of the compound of the formula (I) was determined (n=2 to 3).

The test system of data set [3] is WiDr human colon tumors. Briefly: Solid cancer growth inhibitory action, WiDr cells subcutaneously implanted in nude mice. It is filed as in vivo, nude mouse. The settings on record: 0.625 mg/kg/day intravenously, 15th day, control group as 100%. As to the method: (§1) In order to examine the solid cancer growth inhibitory activity of the compound of the formula (I) in vivo, WiDr human colon cancer cells were subcutaneously implanted into the body of each nude mouse. […] The control group consisted of ten mice, and the 6-deoxy 11107D derivative-administration group consisted of five mice. The derivative was intravenously injected at 0.625 mg/kg/day, 1.25 mg/kg/day, 2.5 mg/kg/day, 5 mg/kg/day, or 10 mg/kg/day to each mouse of the administration group, and a vehicle was administered to each mouse of the control group.
(§2) The tumor volumes on the 15th day were measured to determine the relative tumor weight ratio (T/C %), based on the tumor weight of each mouse of the control group as 100%. The body weights on the day of the start of administration, 5th day, 8th day, 12th day and 15th (or 16th) day were measured to examine the relative body weight variations in the case of administering the representative compounds, based on the body weights on the day of the start of administration as 100%. The minimum relative body weight ratios, which are the relative body weight ratios on the day when the body weights were lightest, are shown in Table 3.

The nature of data set [4]: Body weight reduction (acute toxicity) in the WiDr nude mouse test. It counts as in vivo. The conditions noted are these: 0.625 mg/kg/day intravenously, nude mice, day when body weights were lightest, relative to day of start of administration. As to the method: as §1, §2
Data set [5] can be described thus: Stability in an aqueous solution (HPLC). It is filed as physicochemical. The conditions noted are these: for Remaining percentage (%): pH 7 Britton-Robinson buffer solution, 25° C., 24 hours. As to the method: The compound of the formula (I) was dissolved in DMSO at a concentration of 10 to 20 mM, and the solution was diluted with a pH 7 Britton-Robinson buffer solution to about 500-fold. This solution was used as a sample solution, and was incubated at 25° C. for 24 hours.
The sample solution before and after the incubation was analyzed using high-performance liquid chromatography to obtain a chromatogram. The percentage of the compound remaining in the sample solution after the incubation was determined from the peak area of the chromatogram.

Data set [6] concerns P388 mouse leukemia cells. The settings on record: cited from earlier work.
The subject of data set [7] is P388 mouse leukemia cells. The conditions noted are these: RPM-1640 culture medium; cited from earlier work.
Data set [8] relates to L-1210 mouse leukemia cells. The conditions noted are these: RPM-1640 culture medium; cited from earlier work.
For data set [9], the system named is HL-60 human leukemia cells. The settings on record: RPM-1640 culture medium; cited from earlier work.

For `CCC(O)C(C)C1OC1CC(C)(O)/C=C/C=C(\C)C1OC(=O)CC(O)CCC(C)C(OC(=O)N2C[C@@H]3C[C@H]2CN3C)/C=C/C1C` (stereo partly drawn) [Compound 55, (8E,12E,14E)-3,16,21-trihydroxy-6,10,12,16,20-pentamethyl-7-(((1S,4S)-5-methyl-2,5-diazabicyclo[2.2.1]heptan-2-yl)carbonyl)oxy-18,19-epoxytricosa-8,12,14-trien-11-olide], the IC50 in data set [1] amounted to 1.1 nM; in data set [2], 0.6 nM. Moreover, the “WiDr human colon tumor growth inhibitory activity T/C(%)” value in data set [3] is on record as 11%. Further, in data set [4], the “Minimum relative body weight ratio” value worked out at 0.80. In addition, in data set [5], the “Remaining percentage (%)” value is listed as 95.7%.
For `CCC(OC)C(C)C1OC1C(O)C(C)/C=C/C=C(\C)C1OC(=O)CC(O)CCC(C)(O)C(OC(C)=O)/C=C/C1C` (stereo not drawn) [FD-895], the “Stability in an aqueous solution (in words)” value in data set [5] is listed as “instable in an aqueous solution”. In addition, the “Remaining percentage (%)” value in [5] worked out at 83.0%; in data set [5] (listed as FD895), 83%. Besides, the “Antitumor activity in vivo” value in data set [6] is “did not show antitumor activity”. The “Cytotoxic activity in vitro” value in data set [7], in data set [8] and in [9] was “has cytotoxic activity” in each case.
